Measurements as given in patent US20110070232A1, “Combination Therapy with an Antitumor Alkaloid” (Pharma Mar, S.A., priority 2008, published 2011).
Like-named read-outs stand apart in the source and are kept apart here.

Legend:
Type in all cases: in vivo, mice
MRI-H-254 tumors = system: MRI-H-254 tumors
Procedure: (§1) Female athymic nude mice (Harlan Sprague Dawley, Madison, Wis.) were utilized for all experiments. Animals were housed in ventilated rack caging with food and water ad libitum. The mice were acclimated for at least 5 days prior to tumor implantation with tumor fragments.
Treatments were initiated on DPI 20.
(§2) Tumor size measurements were recorded twice weekly from the treatment initiation until the termination of the study.
(§3) Mean, standard deviation and standard error of the mean were determined for tumor volume for all animal groups at all assessments. Student's t test was performed on tumor volumes at each measurement day, including at the end of the study, to determine whether there were any statistically significant differences between combination treatment groups and single monotherapy treatment groups.

HepG2 tumors = system: HepG2 tumors
Procedure: Female athymic nude mice (Harlan Sprague Dawley, Madison, Wis.) were utilized for all experiments. Animals were housed in ventilated rack caging with food and water ad libitum. The mice were acclimated for at least 5 days prior to tumor implantation with a tumor cell suspension.
The tumor model used in these studies was HepG2 cell line, which was obtained from the ATCC (Manassas, Va.).
HepG2 cells were grown in MEM supplemented with 10% FBS, 1.5 g/L sodium bicarbonate, 0.1 mM non-essential amino acids, 1.0 mM sodium pyruvate, and 2 mM L-glutamine. Each animal was implanted SC on the right flank, using a 13G trochar, with 5×10^6 HepG2 cells in a 0.2 mL suspension of 50% Matrigel and 50% serum free medium, without antibiotics. Bacterial cultures were performed on aliquots of the cells prepared for implantation.
Treatments were initiated on DPI 19.
as §2, §3

SK-OV-3 tumors = conditions: for % Inhibition: PM00104 0.9 mg/kg/day, single agents and combination, r5-r14 = day 14,17,21,24,29,32,36,43,50,57
From the text: as §1
The tumor model used in these studies was SK-OV-3 cell line, which was obtained from the ATCC (Manassas, Va.).
SK-OV-3 fragments were removed from donor animals and tissue was debrided of membrane and any hemorrhagic and necrotic areas and 3-4 mm^3 fragments, from in vivo passage 2, were implanted SC on the right flank of each animal, using a 13G trochar. Bacterial culture was taken on cells used to implant the study.
Treatments were initiated on DPI 14.
as §2, §3

CaLu-6 tumors = conditions: G2 PM00104 0.9 mg/kg/day IV
From the text: Female athymic nude mice (Harlan Sprague Dawley, Madison, Wis.) were utilized for all experiments. Animals were housed in ventilated rack caging with food and water ad libitum. The mice were acclimated for at least 5 days prior to tumor implantation.
The tumor model used in this study was CaLu-6 cell line which is a human lung cell line obtained from the ATCC (Manassas, Va.). […] Cells from in vitro passage 10 were those implanted SC into study mice.
Treatments were initiated on DPI 9.
Tumor size measurements were recorded 2-3 times/week from the treatment initiation until the termination of the study.
as §3

[1] = PM00104 0.90 IV, docetaxel 16 IP, oxaliplatin 8 IP mg/kg/day (G2, G3, G5, G7, G9), DPI 20, 27, 34
[2] = day 19, PM00104 0.60, sorafenib 60 mg/kg/day
[3] = day 19, PM00104 0.90, sorafenib 60 mg/kg/day
[4] = day 22, PM00104 0.60, sorafenib 60 mg/kg/day
[5] = day 22, PM00104 0.90, sorafenib 60 mg/kg/day
[6] = day 26, PM00104 0.60, sorafenib 60 mg/kg/day
[7] = day 26, PM00104 0.90, sorafenib 60 mg/kg/day
[8] = day 30, PM00104 0.60, sorafenib 60 mg/kg/day
[9] = day 30, PM00104 0.90, sorafenib 60 mg/kg/day
[10] = day 33, PM00104 0.60, sorafenib 60 mg/kg/day
[11] = day 33, PM00104 0.90, sorafenib 60 mg/kg/day
[12] = PM00104 0.90 mg/kg/day IV and/or Bevacizumab 5 mg/kg/day IP

Compound: COc1c(C)cc2c(c1O)[C@@H]1[C@@H]3Cc4c(OC(C)=O)c(C)c5c(c4[C@H](CNC(=O)/C=C/c4cccc(C(F)(F)F)c4)N3[C@@H](O)[C@H](C2)N1C)OCO5 [PM00104]
- % T/C on day 20 (MRI-H-254 tumors; [1]): 100.2%
- % T/C on day 23 (MRI-H-254 tumors; [1]): 109.3%
- % T/C on day 27 (MRI-H-254 tumors; [1]): 71.6%
- % T/C on day 30 (MRI-H-254 tumors; [1]): 65.4%
- % T/C on day 33 (MRI-H-254 tumors; [1]): 54.2%
- % T/C on day 36 (MRI-H-254 tumors; [1]): 50.0%
- % T/C on day 40 (MRI-H-254 tumors; [1]): 36.1%
- % T/C on day 48 (MRI-H-254 tumors; [1]): 26.9%
- % Inhibition (MRI-H-254 tumors; day 20, PM00104 0.9 and docetaxel 8 mg/kg/day): −0.2%
- % Inhibition (MRI-H-254 tumors; day 20, PM00104 0.9 and docetaxel 16 mg/kg/day): −0.2%
- % Inhibition (MRI-H-254 tumors; day 20, PM00104 0.9 and oxaliplatin 4 mg/kg/day): −0.2%
- % Inhibition (MRI-H-254 tumors; day 20, PM00104 0.9 and oxaliplatin 8 mg/kg/day): −0.2%
- % Inhibition (MRI-H-254 tumors; day 23, PM00104 0.9 and docetaxel 8 mg/kg/day): −9.3%
- % Inhibition (MRI-H-254 tumors; day 23, PM00104 0.9 and docetaxel 16 mg/kg/day): −9.3%
- % Inhibition (MRI-H-254 tumors; day 23, PM00104 0.9 and oxaliplatin 4 mg/kg/day): −9.3%
- % Inhibition (MRI-H-254 tumors; day 23, PM00104 0.9 and oxaliplatin 8 mg/kg/day): −9.3%
- % Inhibition (MRI-H-254 tumors; day 27, PM00104 0.9 and docetaxel 8 mg/kg/day): 28.4%
- % Inhibition (MRI-H-254 tumors; day 27, PM00104 0.9 and docetaxel 16 mg/kg/day): 28.4%
- % Inhibition (MRI-H-254 tumors; day 27, PM00104 0.9 and oxaliplatin 4 mg/kg/day): 28.4%
- % Inhibition (MRI-H-254 tumors; day 27, PM00104 0.9 and oxaliplatin 8 mg/kg/day): 28.4%
- % Inhibition (MRI-H-254 tumors; day 30, PM00104 0.9 and docetaxel 8 mg/kg/day): 34.6%
- % Inhibition (MRI-H-254 tumors; day 30, PM00104 0.9 and docetaxel 16 mg/kg/day): 34.6%
- % Inhibition (MRI-H-254 tumors; day 30, PM00104 0.9 and oxaliplatin 4 mg/kg/day): 34.6%
- % Inhibition (MRI-H-254 tumors; day 30, PM00104 0.9 and oxaliplatin 8 mg/kg/day): 34.6%
- % Inhibition (MRI-H-254 tumors; day 33, PM00104 0.9 and docetaxel 8 mg/kg/day): 45.8%
- % Inhibition (MRI-H-254 tumors; day 33, PM00104 0.9 and docetaxel 16 mg/kg/day): 45.8%
- % Inhibition (MRI-H-254 tumors; day 33, PM00104 0.9 and oxaliplatin 4 mg/kg/day): 45.8%
- % Inhibition (MRI-H-254 tumors; day 33, PM00104 0.9 and oxaliplatin 8 mg/kg/day): 45.8%
- % Inhibition (MRI-H-254 tumors; day 36, PM00104 0.9 and docetaxel 8 mg/kg/day): 50.0%
- % Inhibition (MRI-H-254 tumors; day 36, PM00104 0.9 and docetaxel 16 mg/kg/day): 50.0%
- % Inhibition (MRI-H-254 tumors; day 36, PM00104 0.9 and oxaliplatin 4 mg/kg/day): 50.0%
- % Inhibition (MRI-H-254 tumors; day 36, PM00104 0.9 and oxaliplatin 8 mg/kg/day): 50.0%
- % Inhibition (MRI-H-254 tumors; day 40, PM00104 0.9 and docetaxel 8 mg/kg/day): 63.9%
- % Inhibition (MRI-H-254 tumors; day 40, PM00104 0.9 and docetaxel 16 mg/kg/day): 63.9%
- % Inhibition (MRI-H-254 tumors; day 40, PM00104 0.9 and oxaliplatin 4 mg/kg/day): 63.9%
- % Inhibition (MRI-H-254 tumors; day 40, PM00104 0.9 and oxaliplatin 8 mg/kg/day): 63.9%
- % Inhibition (MRI-H-254 tumors; day 48, PM00104 0.9 and docetaxel 8 mg/kg/day): 73.1%
- % Inhibition (MRI-H-254 tumors; day 48, PM00104 0.9 and docetaxel 16 mg/kg/day): 73.1%
- % Inhibition (MRI-H-254 tumors; day 48, PM00104 0.9 and oxaliplatin 4 mg/kg/day): 73.1%
- % Inhibition (MRI-H-254 tumors; day 48, PM00104 0.9 and oxaliplatin 8 mg/kg/day): 73.1%
- % Inhibition (HepG2 tumors; day 19, PM00104 0.60, sorafenib 30 mg/kg/day): 8.4%
- % Inhibition (HepG2 tumors; [2]): 8.4%
- % T/C (HepG2 tumors; [2]): 91.6%
- % Inhibition (HepG2 tumors; day 19, PM00104 0.90, sorafenib 30 mg/kg/day): 8.5%
- % Inhibition (HepG2 tumors; [3]): 8.5%
- % T/C (HepG2 tumors; [3]): 91.5%
- % Inhibition (HepG2 tumors; day 22, PM00104 0.60, sorafenib 30 mg/kg/day): 28.1%
- % Inhibition (HepG2 tumors; [4]): 28.1%
- % T/C (HepG2 tumors; [4]): 71.9%
- % Inhibition (HepG2 tumors; day 22, PM00104 0.90, sorafenib 30 mg/kg/day): 40.3%
- % Inhibition (HepG2 tumors; [5]): 40.3%
- % T/C (HepG2 tumors; [5]): 59.7%
- % Inhibition (HepG2 tumors; day 26, PM00104 0.60, sorafenib 30 mg/kg/day): 48.3%
- % Inhibition (HepG2 tumors; [6]): 48.3%
- % T/C (HepG2 tumors; [6]): 51.7%
- % Inhibition (HepG2 tumors; day 26, PM00104 0.90, sorafenib 30 mg/kg/day): 59.5%
- % Inhibition (HepG2 tumors; [7]): 59.5%
- % T/C (HepG2 tumors; [7]): 40.5%
- % Inhibition (HepG2 tumors; day 30, PM00104 0.60, sorafenib 30 mg/kg/day): 59.2%
- % Inhibition (HepG2 tumors; [8]): 59.2%
- % T/C (HepG2 tumors; [8]): 40.8%
- % Inhibition (HepG2 tumors; day 30, PM00104 0.90, sorafenib 30 mg/kg/day): 76.1%
- % Inhibition (HepG2 tumors; [9]): 76.1%
- % T/C (HepG2 tumors; [9]): 23.9%
- % Inhibition (HepG2 tumors; day 33, PM00104 0.60, sorafenib 30 mg/kg/day): 62.4%
- % Inhibition (HepG2 tumors; [10]): 62.4%
- % T/C (HepG2 tumors; [10]): 37.6%
- % Inhibition (HepG2 tumors; day 33, PM00104 0.90, sorafenib 30 mg/kg/day): 73.0%
- % Inhibition (HepG2 tumors; [11]): 73.0%
- % T/C (HepG2 tumors; [11]): 27.0%
- % T/C on day 14 (SK-OV-3 tumors; [12]): 100.9%
- % T/C on day 17 (SK-OV-3 tumors; [12]): 87.6%
- % T/C on day 21 (SK-OV-3 tumors; [12]): 79.4%
- % T/C on day 24 (SK-OV-3 tumors; [12]): 78.8%
- % T/C on day 29 (SK-OV-3 tumors; [12]): 73.5%
- % T/C on day 32 (SK-OV-3 tumors; [12]): 73.1%
- % T/C on day 36 (SK-OV-3 tumors; [12]): 72.7%
- % T/C on day 43 (SK-OV-3 tumors; [12]): 81.5%
- % T/C on day 50 (SK-OV-3 tumors; [12]): 93.8%
- % T/C on day 57 (SK-OV-3 tumors; [12]): 100.4%
- % Inhibition (SK-OV-3 tumors; bevacizumab 5 mg/kg/day): 27.3%
- % Inhibition (SK-OV-3 tumors; bevacizumab […]): 27.3%
- % T/C on day 9 (CaLu-6 tumors): 104.1%
- % T/C on day 13 (CaLu-6 tumors): 106.0%
- % T/C on day 16 (CaLu-6 tumors): 111.4%
- % T/C on day 20 (CaLu-6 tumors): 115.4%
- % T/C on day 27 (CaLu-6 tumors): 93.9%
- % T/C on day 30 (CaLu-6 tumors): 80.3%
- % T/C on day 34 (CaLu-6 tumors): 81.5%
- % T/C on day 42 (CaLu-6 tumors): 77.2%
- % Inhibition (CaLu-6 tumors; day 9): −4.1%
- % Inhibition (CaLu-6 tumors; day 13): −6.0%
- % Inhibition (CaLu-6 tumors; day 16): −11.4%
- % Inhibition (CaLu-6 tumors; day 20): −15.4%
- % Inhibition (CaLu-6 tumors; day 23): −16.8%
- % Inhibition (CaLu-6 tumors; day 27): 6.1%
- % Inhibition (CaLu-6 tumors; day 30): 19.7%
- % Inhibition (CaLu-6 tumors; day 34): 18.5%
- % Inhibition (CaLu-6 tumors; day 42): 22.8%
